This data set can be described thus: Hydrolytic stability: time dependent degree of hydrolysis of the 19F fluorosilane to the hydroxy compound at physiological pH (7.0). The data set is classed as physicochemical. The settings on record: ratio of hydrolytic halflife to radioactive halflife of the 18-F isotope (1.83 hours). As to the method:
The time dependent degree of hydrolysis of compounds of formula I in which X is a fluorine atom of isotope 19 to compounds of formula I in which X is a hydroxy group was determined at physiological pH (7.0). From the kinetics the hydrolytic halflife (t1/2) measured in hours [h] of compounds of formula I in which X is a fluorine atom of isotope 19 were calculated (Table 1, column 2).
The ratio of the hydrolytic halflifes of compounds of formula I in which X is a fluorine atom of isotope 19 and the radioactive halflife of the 18-F isotope (1.83 hours) is defined as relative stability (Table 1, column 3).
After 6 hours 90% of the 18-F isotope have been decayed.
Compounds of formula I in which X is a fluorine atom of isotope 18 are considered as useful for PET applications if the relative stability of their analogs bearing a fluorine atom of isotope 19 exceed a factor of four and if at least 50% of these compounds remain intact after 6 hours under hydrolytic conditions at pH 7.
In the case of `CC(C)[Si](F)(c1ccc(COC2CCCCO2)cc1)C(C)C` (racemic) [Compound 3a - F, (RS)-Fluoro-diisopropyl-[4-(tetrahydro-pyran-2-yloxymethyl)-phenyl]-silane], the rel. stability stood at 27.0.

Take `CC(C)[Si](F)(c1cccc(CCOC2CCCCO2)c1)C(C)C` (racemic) [Compound 3e - F, (RS)-Fluoro-diisopropyl-{3-[2-(tetrahydro-pyran-2-yloxy)-ethyl]-phenyl}-silane]: the rel. stability is over 54.6.

For `F[Si](c1ccccc1)(c1ccccc1)c1ccc(CCOC2CCCCO2)cc1` (racemic) [Compound 3f - F, (RS)-Fluoro-diphenyl-{4-[2-(tetrahydro-pyran-2-yloxy)-ethyl]-phenyl}-silane], the rel. stability was determined as 0.04.

Regarding `CC(C)C[Si](F)(CC(C)C)c1ccc(COC2CCCCO2)cc1` (racemic) [Compound 3g - F, (RS)-Fluoro-diisobutyl-[4-(tetrahydro-pyran-2-yloxymethyl)-phenyl]-silane], the rel. stability amounted to 4.5.

With `CC(C)[Si](F)(c1ccc(C(=O)O)cc1)C(C)C` [Compound 5a - F, 4-(Fluoro-diisopropyl-silanyl)-benzoic acid], the rel. stability worked out at 6.1.

Consider `CC(C)C[Si](F)(CC(C)C)c1ccc(C(=O)O)cc1` [Compound 5g - F, 4-(Fluoro-diisobutyl-silanyl)-benzoic acid], for which the rel. stability came to 1.9.

For `CC(C)C[Si](F)(CC(C)C)c1ccc(CC(=O)O)cc1` [Compound 5h - F, [4-(Fluoro-diisobutyl-silanyl)-phenyl]-acetic acid], the rel. stability was determined as 4.8.

For `CC(C)C[Si](F)(CCCCC(=O)Nc1ccccc1)CC(C)C` [Compound 30a - 1F, 5-(Fluoro-diisobutyl-silanyl)-pentanoic acid phenylamide], the rel. stability came to 7.5.
